Where two headings read alike, the source gives them in different places.
How the values were obtained:
SHV-5 β-lactamase = molecular target: T1, SHV-5 β-lactamase (Klebsiella pneumoniae, UniProt P0A3M1); assay: β-lactamase enzyme inhibition, SHV-5; format: biochemical
T1 construct: made in house; host or cells: E. coli BL21(DE3)
Outline: (§1)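 Enzyme + inhibitor, 15 min, 37° C; substrate added, absorbance read 10 min. OXA-1/p99 AmpC: nitrocefin 100 μM final, A486. KPC-2: imipenem, A300. SHV-5: cefotaxime, A260. IC50 = 50% drop in initial hydrolysis rate vs no-inhibitor control.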

KPC-2 β-lactamase = molecular target: T2, KPC-2 β-lactamase (Klebsiella pneumoniae, UniProt Q9F663); assay: β-lactamase enzyme inhibition, KPC-2; format: biochemical
T2 construct: made in house; host or cells: E. coli BL21(DE3)
Outline: as §1

[1] = molecular target: T3, VIM-2 metallo β-lactamase (Pseudomonas aeruginosa, UniProt Q9K2N0); assay: β-lactamase enzyme inhibition, VIM-2; format: biochemical; details: Nitrocefin 100 μM, 486 nm; 15 min at 37° C. preincubation; read-out: IC50 VIM-2 (Class B)
T3 construct: made in house; host or cells: E. coli BL21(DE3)
Outline: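 Inhibitor and enzyme sat together 15 min at 37° C before 100 μM nitrocefin (final) was added and 486 nm absorbance read for 10 min. IC50 is the concentration halving initial hydrolysis rate relative to uninhibited wells. Protein came from Q sepharose anion exchange at pH 7.5, repeated to >90% purity.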

p99 AmpC β-lactamase = molecular target: T4, p99 AmpC β-lactamase (Enterobacter cloacae, UniProt P05364); assay: β-lactamase enzyme inhibition, p99 AmpC; format: biochemical
T4 construct: made in house; host or cells: E. coli BL21(DE3)
Outline: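 Inhibitor and enzyme were incubated 15 min at 37°C first. The enzyme was recombinant p99 AmpC, untagged, from E. coli BL21(DE3), purified by ion-exchange and size-exclusion chromatography.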

OXA-1 β-lactamase = molecular target: T5, OXA-1 β-lactamase (Escherichia coli, UniProt P13661); assay: β-lactamase enzyme inhibition, OXA-1; format: biochemical; details: Nitrocefin 100 μM, 486 nm; 15 min at 37° C. preincubation; read-out: IC50 OXA-1 (Class D)
T5 construct: made in house; host or cells: E. coli BL21(DE3)
Outline: as §1

[2] = system: E. coli ESBL4 expressing CTX-M-15; assay: broth microdilution MIC, E. coli CTX-M-15; format: cell-based; details: Fixed CAZ (ceftazidime) 4 μg/mL
Outline: (§2)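 Potentiation MICs were run by CLSI broth microdilution in cation-adjusted Mueller Hinton broth, with test compound serially diluted 2-fold from 32 to 0.25 μg/mL against a fixed 4 μg/mL beta-lactam overlay. Plates were incubated 16-20 hours at 37° C and the MIC was read visually.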

[3] = system: E. cloacae 144200 expressing Class C P99 AmpC; assay: broth microdilution MIC, E. cloacae P99; format: cell-based; details: Fixed CAZ (ceftazidime) 4 μg/mL
Outline: as §2

[4] = system: K. pneumoniae 156319 expressing KPC-3; assay: broth microdilution MIC, K. pneumoniae KPC-3; format: cell-based; details: for MIC of exemplary compounds in presence of fixed β-lactams, K.P. 156319 KPC-3: Fixed Mero (meropenem) 4 μg/mL
Outline: as §2

[5] = system: P. aeruginosa Ps296 expressing VIM-2; assay: broth microdilution MIC, P. aeruginosa VIM-2; format: cell-based; details: for MIC of exemplary compounds in presence of fixed β-lactams, P. aerug. Ps296 VIM-2: Fixed Mero (meropenem) 4 μg/mL
Excerpt: (§3) To determine the ability of test compounds to potentiate the inhibition of the growth of bacterial strains that produce beta-lactamase enzymes, classic cell based broth microdilution MIC assays were employed. Six bacteria strains producing beta-lactamase enzymes were used: E. coli expressing the Class A Extended Spectrum Beta-Lactamase (ESBL) CTX-M-15, E. cloacae expressing the Class C P99, K. pneumoniae expressing the Class A carbapenemase KPC-3, P. aeruginosa expressing the Class B carbapenemase VIM-2, K pneumoniae expressing the class A carbapenemase KPC-2 and the class B carbapenemase VIM-4, and S. aureus producing the Class A penicillinase PC-1. The assay was conducted in Cation Adjusted Mueller Hinton Broth (CAMHB, BD #212322, BD Diagnostic Systems, Sparks, Md.). Bacteria strains were grown for 3-5 hours in CAMBH broth. Test compounds were added to a microtiter plate in 2-fold serial dilutions in CAMHB in a final concentration range of 32 μg/mL to 0.25 μg/ml. An overlay of CAMHB containing a Beta-lactam was added to the compounds at a final static concentration of 4 μg/ml. […] In addition to the titration of test compounds the MICs of a panel of control beta-lactams is also tested to ensure the strains are behaving consistently from test to test. Once the test compound and antibiotics are added the plates can be inoculated according to CLSI broth microdilution method. After inoculation the plates are incubated for 16-20 hours at 37° C., then the Minimal Inhibitory Concentration (MIC) of the test compound is determined visually.
(§4) Using the methodology described above, examples of the current invention were evaluated for their ability to inhibit the growth of β-lactamase-producing bacteria in the presence of a β-lactam antibiotic.
(§5) Representative results are shown in Table 4 where A represents an MIC of the fixed β-lactam antibiotic in the presence of >32 µg/mL of a β-lactamase inhibitor of exemplary compounds, B represents the MIC in the presence of between 8 and 32 µg/mL of a β-lactamase inhibitor of exemplary compounds, and C represents the MIC in the presence of ≤4 µg/mL of a β-lactamase inhibitor of exemplary compounds. NT=Not Tested.

[6] = system: K. pneumoniae A-1797 expressing KPC-2 and VIM-4; assay: broth microdilution MIC, K. pneumoniae KPC-2 and VIM-4; format: cell-based; details: for MIC of exemplary compounds in presence of fixed β-lactams, K.P. A-1797 KPC-2 VIM-4: Fixed Mero (meropenem) 4 μg/mL
Outline: as §2

[7] = system: S. aureus MSSA-7 producing penicillinase PC-1; assay: broth microdilution MIC, S. aureus PC-1; format: cell-based; details: for MIC of exemplary compounds in presence of fixed β-lactams, S. aureus MSSA-7 PC-1: Fixed Pip (piperacillin) 4 μg/mL
Excerpt: as §3, §4, §5

[8] = imipenem substrate, 300 nm, 15 min at 37° C. preincubation, read-out: IC50 KPC-2 (Class A)
[9] = Klebsiella pneumoniae, read-out: MIC alone

T5 sequence (P13661 26-276): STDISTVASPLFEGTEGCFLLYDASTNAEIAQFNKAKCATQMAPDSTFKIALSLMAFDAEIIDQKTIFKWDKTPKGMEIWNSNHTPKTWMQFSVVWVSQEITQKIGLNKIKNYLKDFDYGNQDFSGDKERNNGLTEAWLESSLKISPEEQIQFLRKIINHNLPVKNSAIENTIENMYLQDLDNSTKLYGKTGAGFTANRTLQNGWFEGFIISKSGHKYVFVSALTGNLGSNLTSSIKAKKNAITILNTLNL
T4 sequence (P05364 21-381): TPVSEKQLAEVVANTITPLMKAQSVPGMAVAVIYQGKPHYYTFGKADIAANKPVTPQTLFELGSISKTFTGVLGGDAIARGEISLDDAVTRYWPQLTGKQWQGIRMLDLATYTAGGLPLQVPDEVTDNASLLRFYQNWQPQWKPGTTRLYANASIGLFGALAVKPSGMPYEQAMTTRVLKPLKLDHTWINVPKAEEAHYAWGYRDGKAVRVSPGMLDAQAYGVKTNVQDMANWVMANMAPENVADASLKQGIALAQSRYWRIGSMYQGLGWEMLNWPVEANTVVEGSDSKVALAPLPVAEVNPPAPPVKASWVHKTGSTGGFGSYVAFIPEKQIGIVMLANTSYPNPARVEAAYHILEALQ
T1 sequence (P0A3M1 22-286): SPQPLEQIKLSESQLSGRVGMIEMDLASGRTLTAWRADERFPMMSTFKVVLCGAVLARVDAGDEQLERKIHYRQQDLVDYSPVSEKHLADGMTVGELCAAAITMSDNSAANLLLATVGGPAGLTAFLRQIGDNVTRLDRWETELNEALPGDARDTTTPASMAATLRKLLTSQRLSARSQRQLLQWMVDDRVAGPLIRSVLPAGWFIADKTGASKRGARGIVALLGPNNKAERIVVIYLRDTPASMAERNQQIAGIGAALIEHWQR
T2 sequence (Q9F663 25-293, looked up): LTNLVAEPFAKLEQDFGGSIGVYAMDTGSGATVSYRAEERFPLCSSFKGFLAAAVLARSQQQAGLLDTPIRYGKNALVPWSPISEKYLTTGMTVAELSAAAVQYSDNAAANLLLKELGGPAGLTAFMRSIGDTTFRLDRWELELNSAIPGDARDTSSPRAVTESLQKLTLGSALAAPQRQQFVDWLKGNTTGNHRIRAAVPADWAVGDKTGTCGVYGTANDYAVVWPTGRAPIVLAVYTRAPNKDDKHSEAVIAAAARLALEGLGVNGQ

Row | Structure (SMILES) | IC50 (SHV-5 β-lactamase) [nM] | IC50 (KPC-2 β-lactamase) [nM] | IC50 [1] [µM] | IC50 (p99 AmpC β-lactamase) [nM] | IC50 (OXA-1 β-lactamase) [nM] | MIC of exemplary compounds in presence of fixed β-lactams, E. coli ESBL4 CTX-M-15 [2] | MIC of exemplary compounds in presence of fixed β-lactams, E. cl. 144200 p99 AmpC [3] | MIC of exemplary compounds in presence of fixed β-lactams, K.P. 156319 KPC-3 [4] | MIC of exemplary compounds in presence of fixed β-lactams, P. aerug. Ps296 VIM-2 [5] | MIC of exemplary compounds in presence of fixed β-lactams, K.P. A-1797 KPC-2 VIM-4 [6] | MIC of exemplary compounds in presence of fixed β-lactams, S. aureus MSSA-7 PC-1 [7] | IC50 (KPC-2 β-lactamase; [8]) [nM] | MIC [4, 9] [µg/mL] | MIC alone ([5]; partner antibiotic alone, P. aeruginosa expressing VIM-2) [µg/mL] | MIC [6, 9] [µg/mL] | MIC alone ([7]; partner antibiotic alone, S. aureus producing PC-1) [µg/mL]
1 | CCCC(=O)N[C@H]1Cc2cccc(C(=O)O)c2OB1O [Example 1, (R)-3-Butyrylamino-2-hydroxy-3,4-dihydro-2H-benzo[e][1,2]oxaborinine-8-carboxylic acid] | < 100 | < 100 | 1 to 10 | < 100 | < 100 | C (C represents the MIC in the presence of ≤4 g/mL of a β-lactamase inhibitor) | C (C represents the MIC in the presence of ≤4 g/mL of a β-lactamase inhibitor) | C (C represents the MIC in the presence of ≤4 g/mL of a β-lactamase inhibitor) | A (A represents an MIC of the fixed β-lactam antibiotic in the presence of >32 g/mL of a β-lactamase inhibitor) | A (A represents an MIC of the fixed β-lactam antibiotic in the presence of >32 g/mL of a β-lactamase inhibitor) | C (C represents the MIC in the presence of ≤4 g/mL of a β-lactamase inhibitor) | – | – | – | – | –
2 | N#CCC(=O)N[C@H]1Cc2cccc(C(=O)O)c2OB1O [Example 2, (R)-3-(2-Cyano-acetylamino)-2-hydroxy-3,4-dihydro-2H-benzo[e] [1,2]oxaborinine-8-carboxylic acid] | < 100 | – | 1 to 10 | < 100 | < 100 | C (C represents the MIC in the presence of ≤4 g/mL of a β-lactamase inhibitor) | C (C represents the MIC in the presence of ≤4 g/mL of a β-lactamase inhibitor) | C (C represents the MIC in the presence of ≤4 g/mL of a β-lactamase inhibitor) | B (B represents the MIC in the presence of between 8 and 32 g/mL of a β-lactamase inhibitor) | C (C represents the MIC in the presence of ≤4 g/mL of a β-lactamase inhibitor) | C (C represents the MIC in the presence of ≤4 g/mL of a β-lactamase inhibitor) | 100 to 1000 | – | – | – | –
3 | O=C(CCC(F)(F)F)N[C@H]1Cc2cccc(C(=O)O)c2OB1O [Example 7, (R)-2-Hydroxy-3-(4,4,4-trifluoro-butyrylamino)-3,4-dihydro-2H-benzo[e][1,2]oxaborinine-8-carboxylic acid] | < 100 | < 100 | 1 to 10 | < 100 | < 100 | C (C represents the MIC in the presence of ≤4 g/mL of a β-lactamase inhibitor) | C (C represents the MIC in the presence of ≤4 g/mL of a β-lactamase inhibitor) | C (C represents the MIC in the presence of ≤4 g/mL of a β-lactamase inhibitor) | B (B represents the MIC in the presence of between 8 and 32 g/mL of a β-lactamase inhibitor) | A (A represents an MIC of the fixed β-lactam antibiotic in the presence of >32 g/mL of a β-lactamase inhibitor) | – | – | – | – | – | –
4 | O=C(CC(C(F)(F)F)C(F)(F)F)N[C@H]1Cc2cccc(C(=O)O)c2OB1O [Example 9, (R)-2-Hydroxy-3-(4,4,4-trifluoro-3-trifluoromethyl-butyrylamino)-3,4-dihydro-2H-benzo[e][1,2]oxaborinine-8-carboxylicacid] | < 100 | – | 10 to 100 | < 100 | 100 to 1000 | B (B represents the MIC in the presence of between 8 and 32 g/mL of a β-lactamase inhibitor) | C (C represents the MIC in the presence of ≤4 g/mL of a β-lactamase inhibitor) | B (B represents the MIC in the presence of between 8 and 32 g/mL of a β-lactamase inhibitor) | A (A represents an MIC of the fixed β-lactam antibiotic in the presence of >32 g/mL of a β-lactamase inhibitor) | A (A represents an MIC of the fixed β-lactam antibiotic in the presence of >32 g/mL of a β-lactamase inhibitor) | – | 100 to 1000 | – | – | – | –
5 | O=C(CCNS(=O)(=O)C(F)(F)F)N[C@H]1Cc2cccc(C(=O)O)c2OB1O [Example 52, (R)-2-Hydroxy-3-(3-trifluoromethanesulfonylamino-propionylamino)-3,4-dihydro-2H-benzo[e][1,2]oxaborinine-8-carboxylic acid] | < 100 | – | 1 to 10 | < 100 | < 100 | C (C represents the MIC in the presence of ≤4 g/mL of a β-lactamase inhibitor) | C (C represents the MIC in the presence of ≤4 g/mL of a β-lactamase inhibitor) | B (B represents the MIC in the presence of between 8 and 32 g/mL of a β-lactamase inhibitor) | – | B (B represents the MIC in the presence of between 8 and 32 g/mL of a β-lactamase inhibitor) | – | < 100 | – | – | – | –
6 | CCC(=O)N[C@H]1Cc2cccc(C(=O)O)c2OB1O [Example 62, (R)-2-Hydroxy-3-propionylamino-3,4-dihydro-2H-benzo[e][1,2]oxaborinine-8-carboxylic acid] | 100 to 1000 | < 100 | 1 to 10 | – | < 100 | C (C represents the MIC in the presence of ≤4 g/mL of a β-lactamase inhibitor) | C (C represents the MIC in the presence of ≤4 g/mL of a β-lactamase inhibitor) | C (C represents the MIC in the presence of ≤4 g/mL of a β-lactamase inhibitor) | B (B represents the MIC in the presence of between 8 and 32 g/mL of a β-lactamase inhibitor) | B (B represents the MIC in the presence of between 8 and 32 g/mL of a β-lactamase inhibitor) | C (C represents the MIC in the presence of ≤4 g/mL of a β-lactamase inhibitor) | – | – | – | – | –
7 | C[C@@H](O)[C@H]1C(=O)N2C(C(=O)O)=C(S[C@@H]3CN[C@H](C(=O)N(C)C)C3)[C@H](C)[C@H]12 [Meropenem, meropenem, reference compound] | – | – | – | – | – | – | – | – | – | – | – | – | > 128 | 16 | 64 | –
8 | CCN1CCN(C(=O)N[C@@H](C(=O)N[C@@H]2C(=O)N3[C@@H]2SC(C)(C)[C@@H]3C(=O)O)c2ccccc2)C(=O)C1=O [Piperacillin, piperacillin, reference compound] | – | – | – | – | – | – | – | – | – | – | – | – | – | – | – | 64
